Molecular target: T1, PLK1 (Homo sapiens, UniProt P53350)
T1 construct: Full-length, active GST-PLK1 is purified from Sf9 insect cells; made in house; host or cells: Sf9 insect cells
Assay: Biochemical Characterization Assay: HTRF kinase assay, GST-PLK1 phosphorylation of GST-p53
Conditions: GST-PLK1, GST-p53 substrate
In short: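 Full-length active GST-PLK1 (Sf9, 3 ug/mL) phosphorylated full-length GST-p53 (E. coli) in Kinase Assay Buffer for 35 min at 37 °C. Stopped with EDTA; phospho-p53 detected by HTRF with anti-phospho-p53, Eu-anti-rabbit and APC-anti-GST antibodies.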

T1 sequence (P53350 whole entry): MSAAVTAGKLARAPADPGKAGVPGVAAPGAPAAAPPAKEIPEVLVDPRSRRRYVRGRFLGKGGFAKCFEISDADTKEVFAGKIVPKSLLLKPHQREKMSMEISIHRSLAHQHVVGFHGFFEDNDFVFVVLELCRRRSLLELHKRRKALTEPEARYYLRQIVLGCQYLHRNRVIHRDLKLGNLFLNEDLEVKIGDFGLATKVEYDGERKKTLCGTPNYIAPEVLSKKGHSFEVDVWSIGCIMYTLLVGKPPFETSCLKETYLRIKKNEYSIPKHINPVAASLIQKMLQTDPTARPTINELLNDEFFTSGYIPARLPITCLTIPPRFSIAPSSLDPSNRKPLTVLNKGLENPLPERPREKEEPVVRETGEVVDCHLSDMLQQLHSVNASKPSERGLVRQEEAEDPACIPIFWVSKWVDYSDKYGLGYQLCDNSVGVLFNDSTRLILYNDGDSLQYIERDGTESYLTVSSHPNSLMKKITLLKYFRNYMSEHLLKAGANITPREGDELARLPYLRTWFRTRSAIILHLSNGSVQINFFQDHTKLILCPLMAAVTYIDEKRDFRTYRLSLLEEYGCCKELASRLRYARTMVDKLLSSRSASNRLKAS

Compound	IC50 (ATP)	IC50
COc1cc(C(=O)N(C)C)ccc1Nc1ncc2c(n1)N(C1CCCC1)CC(F)(F)C(=O)N2C [Example I-125, 4-(9-cyclopentyl-7,7-difluoro-5-methyl-6-oxo-6,7,8,9-tetrahydro-5H-pyrimido[4,5-b][1,4]diazepin-2-ylamino)-3-methoxy-N,N-dimethyl-benzamide]	1 to 50 nM	–
CNC(=O)c1ccc(Nc2ncc3c(n2)N(C2CCCC2)CC(F)(F)C(=O)N3)c(OC)c1 [Example I-153, 4-(9-cyclopentyl-7,7-difluoro-6-oxo-6,7,8,9-tetrahydro-5H-pyrimido[4,5-b][1,4]diazepin-2-ylamino)-3-methoxy-N-methyl-benzamide]	500 to 5000 nM	–
COc1cc(C(=O)NCC(C)(C)CN(C)C)ccc1Nc1ncc2c(n1)N(C1CCCC1)CC(F)(F)C(=O)N2C [Example I-60, 4-(9-cyclopentyl-7,7-difluoro-5-methyl-6-oxo-6,7,8,9-tetrahydro-5H-pyrimido[4,5-b][1,4]diazepin-2-ylamino)-N-(3-dimethylamino-2,2-dimethyl-propyl)-3-methoxy-benzamide]	1 to 50 nM	–
CN1C(=O)C(F)(F)CN(C2CCC2)c2nc(Nc3ccc(C(N)=O)cc3)ncc21 [Example I-12, 4-(9-cyclobutyl-7,7-difluoro-5-methyl-6-oxo-6,7,8,9-tetrahydro-5H-pyrimido[4,5-b][1,4]diazepin-2-ylamino)-benzamide]	51 to 500 nM	–
CCN1C(=O)C(F)(F)CN(C2CCCC2)c2nc(Nc3ccc(C(N)=O)cc3OC)ncc21 [Example I-157, 4-(9-cyclopentyl-5-ethyl-7,7-difluoro-6-oxo-6,7,8,9-tetrahydro-5H-pyrimido[4,5-b][1,4]diazepin-2-yl-amino)-3-methoxy-benzamide]	500 to 5000 nM	–
Cc1cc(C(=O)NC2CCN(C(=O)OC(C)(C)C)CC2)ccc1Nc1ncc2c(n1)N(C1CCCC1)CC(F)(F)C(=O)N2C [Example I-191, 4-[4-(9-cyclopentyl-7,7-difluoro-5-methyl-6-oxo-6,7,8,9-tetrahydro-5H-pyrimido[4,5-b][1,4]diazepin-2-ylamino)-3-methyl-benzoylamino]-piperidine-1-carboxylic acid tert-butyl ester]	–	1 to 50 nM
COc1cc(C(=O)NC2CCOCC2)ccc1Nc1ncc2c(n1)N(CCCc1ccccc1)CC(F)(F)C(=O)N2C [Example I-286, 4-[7,7-difluoro-5-methyl-6-oxo-9-(3-phenyl-propyl)-6,7,8,9-tetrahydro-5H-pyrimido[4,5-b][1,4]diazepin-2-ylamino]-3-methoxy-N-(tetrahydro-pyran-4-yl)-benzamide]	–	51 to 500 nM
CC(C)Oc1cc(C(=O)NC2CCN(C)CC2)ccc1Nc1ncc2c(n1)N(C1CCCC1)CC(F)(F)C(=O)N2C [Example I-180, 4-(9-cyclopentyl-7,7-difluoro-5-methyl-6-oxo-6,7,8,9-tetrahydro-5H-pyrimido[4,5-b][1,4]diazepin-2-ylamino)-3-isopropoxy-N-(1-methyl-piperidin-4-yl)-benzamide]	–	1 to 50 nM
COc1cc(C(=O)NC2CC(C)(C)NC(C)(C)C2)ccc1Nc1ncc2c(n1)N(C1CCCC1)CC(F)(F)C(=O)N2C [Example I-65, 4-(9-cyclopentyl-7,7-difluoro-5-methyl-6-oxo-6,7,8,9-tetrahydro-5H-pyrimido[4,5-b][1,4]diazepin-2-ylamino)-3-methoxy-N-(2,2,6,6-tetramethyl-piperidin-4-yl)-benzamide]	1 to 50 nM	–
COc1cc(C(=O)NC2CCN(C)CC2)ccc1Nc1ncc2c(n1)N(C1CCCC1)CC(F)(F)C(=O)N2 [Example I-137, 4-(9-cyclopentyl-7,7-difluoro-6-oxo-6,7,8,9-tetrahydro-5H-pyrimido[4,5-b][1,4]diazepin-2-ylamino)-3-methoxy-N-(1-methyl-piperidin-4-yl)-benzamide]	51 to 500 nM	–
CN1CCC(NC(=O)c2ccc(Nc3ncc4c(n3)N(C3CCCC3)CC(F)(F)C(=O)N4C)c(F)c2)CC1 [Example I-183, 4-(9-cyclopentyl-7,7-difluoro-5-methyl-6-oxo-6,7,8,9-tetrahydro-5H-pyrimido[4,5-b][1,4]diazepin-2-ylamino)-3-fluoro-N-(1-methyl-piperidin-4-yl)-benzamide]	–	1 to 50 nM
COc1cc(C(=O)NCC(O)CN2CCNCC2)ccc1Nc1ncc2c(n1)N(C1CCCC1)CC(F)(F)C(=O)N2C (centres unmarked) [Example I-121, 4-(9-cyclopentyl-7,7-difluoro-5-methyl-6-oxo-6,7,8,9-tetrahydro-5H-pyrimido[4,5-b][1,4]diazepin-2-ylamino)-N-(2-hydroxy-3-piperazin-1-yl-propyl)-3-methoxy-benzamide]	1 to 50 nM	–
COc1cc(C(N)=O)ccc1Nc1ncc2c(n1)N(CCc1ccccc1)CC(F)(F)C(=O)N2C [Example I-277, 4-(7,7-difluoro-5-methyl-6-oxo-9-phenethyl-6,7,8,9-tetrahydro-5H-pyrimido[4,5-b][1,4]diazepin-2-ylamino)-3-methoxy-benzamide]	–	51 to 500 nM
CN1CCC(NC(=O)c2cc(F)c(Nc3ncc4c(n3)N(C3CCCC3)CC(F)(F)C(=O)N4C)cc2F)CC1 [Example I-233, 4-(9-cyclopentyl-7,7-difluoro-5-methyl-6-oxo-6,7,8,9-tetrahydro-5H-pyrimido[4,5-b][1,4]diazepin-2-ylamino)-2,5-difluoro-N-(1-methyl-piperidin-4-yl)-benzamide]	–	1 to 50 nM
CN(C)CCNC(=O)c1ccc(Nc2ncc3c(n2)N(C2CCCCC2)CC(F)(F)C(=O)N3C)cc1 [Example I-264, 4-(9-cyclohexyl-7,7-difluoro-5-methyl-6-oxo-6,7,8,9-tetrahydro-5H-pyrimido[4,5-b][1,4]diazepin-2-ylamino)-N-(2-dimethylamino-ethyl)-benzamide]	–	1 to 50 nM
CCc1cc(C(=O)NC2CCN(CC)CC2)ccc1Nc1ncc2c(n1)N(C1CCCC1)CC(F)(F)C(=O)N2C [Example I-196, 4-(9-cyclopentyl-7,7-difluoro-5-methyl-6-oxo-6,7,8,9-tetrahydro-5H-pyrimido[4,5-b][1,4]diazepin-2-ylamino)-3-ethyl-N-(1-ethyl-piperidin-4-yl)-benzamide]	–	1 to 50 nM
COc1cc(C(=O)NCCNc2ccccc2)ccc1Nc1ncc2c(n1)N(C1CCCC1)CC(F)(F)C(=O)N2C [Example I-119, 4-(9-cyclopentyl-7,7-difluoro-5-methyl-6-oxo-6,7,8,9-tetrahydro-5H-pyrimido[4,5-b][1,4]diazepin-2-ylamino)-3-methoxy-N-(2-phenylamino-ethyl)-benzamide]	51 to 500 nM	–
CCN1CCC(NC(=O)c2ccc(Nc3ncc4c(n3)N(C3CCCCC3)CC(F)(F)C(=O)N4C)c(OC)c2)CC1 [Example I-255, 4-(9-cyclohexyl-7,7-difluoro-5-methyl-6-oxo-6,7,8,9-tetrahydro-5H-pyrimido[4,5-b][1,4]diazepin-2-ylamino)-N-(1-ethyl-piperidin-4-yl)-3-methoxy-benzamide]	–	1 to 50 nM
COc1cc(C(=O)N[C@@H]2CCN(C(=O)OC(C)(C)C)C[C@@H]2OC)ccc1Nc1ncc2c(n1)N(C1CCCC1)CC(F)(F)C(=O)N2C (racemic) [Example I-56, rac-(3S,4R)-4-[4-(9-cyclopentyl-7,7-difluoro-5-methyl-6-oxo-6,7,8,9-tetrahydro-5H-pyrimido[4,5-b][1,4]diazepin-2-ylamino)-3-methoxy-benzoylamino]-3-methoxy-piperidine-1-carboxylic acid tert-butyl ester]	1 to 50 nM	–
CCCN1C(=O)C(F)(F)CN(C2CCCC2)c2nc(Nc3ccc(C(=O)NC4CCOCC4)cc3)ncc21 [Example I-149, 4-(9-cyclopentyl-7,7-difluoro-6-oxo-5-propyl-6,7,8,9-tetrahydro-5H-pyrimido[4,5-b][1,4]diazepin-2-ylamino)-N-(tetrahydro-pyran-4-yl)-benzamide]	500 to 5000 nM	–
COc1cc(C(=O)NC(C)c2ccccc2)ccc1Nc1ncc2c(n1)N(C1CCCC1)CC(F)(F)C(=O)N2C (racemic) [Example I-37, rac-4-(9-cyclopentyl-7,7-difluoro-5-methyl-6-oxo-6,7,8,9-tetrahydro-5H-pyrimido[4,5-b][1,4]diazepin-2-ylamino)-3-methoxy-N-(1-phenyl-ethyl)-benzamide]	51 to 500 nM	–
COc1cc(C(=O)NCCCN(C)C)ccc1Nc1ncc2c(n1)N(C1CCC1)CC(F)(F)C(=O)N2C [Example I-9, 4-(9-cyclobutyl-7,7-difluoro-5-methyl-6-oxo-6,7,8,9-tetrahydro-5H-pyrimido[4,5-b][1,4]diazepin-2-ylamino)-N-(3-dimethylamino-propyl)-3-methoxy-benzamide]	1 to 50 nM	–
COc1cc(C(=O)N[C@H]2CCN(Cc3ccccc3)C2)ccc1Nc1ncc2c(n1)N(C1CCCC1)CC(F)(F)C(=O)N2C [Example I-100, N—((S)-1-benzyl-pyrrolidin-3-yl)-4-(9-cyclopentyl-7,7-difluoro-5-methyl-6-oxo-6,7,8,9-tetrahydro-5H-pyrimido[4,5-b][1,4]diazepin-2-ylamino)-3-methoxy-benzamide]	1 to 50 nM	–
CN(C)CCNC(=O)c1ccc(Nc2ncc3c(n2)N(C2CCC2)CC(F)(F)C(=O)N3C)cc1 [Example I-18, 4-(9-cyclobutyl-7,7-difluoro-5-methyl-6-oxo-6,7,8,9-tetrahydro-5H-pyrimido[4,5-b][1,4]diazepin-2-ylamino)-N-(2-dimethylamino-ethyl)-benzamide]	1 to 50 nM	–
COc1cc(C(=O)NCCCN2CCN(CCO)CC2)ccc1Nc1ncc2c(n1)N(C1CCCC1)CC(F)(F)C(=O)N2C [Example I-96, 4-(9-cyclopentyl-7,7-difluoro-5-methyl-6-oxo-6,7,8,9-tetrahydro-5H-pyrimido[4,5-b][1,4]diazepin-2-ylamino)-N-{3-[4-(2-hydroxy-ethyl)-piperazin-1-yl]-propyl}-3-methoxy-benzamide]	1 to 50 nM	–
COc1cc(C(=O)NC2CCN(Cc3ccccc3)CC2)ccc1Nc1ncc2c(n1)N(C1CCCC1)CC(F)(F)C(=O)N2C [Example I-122, N-(1-benzyl-piperidin-4-yl)-4-(9-cyclopentyl-7,7-difluoro-5-methyl-6-oxo-6,7,8,9-tetrahydro-5H-pyrimido[4,5-b][1,4]diazepin-2-ylamino)-3-methoxy-benzamide]	1 to 50 nM	–

Source: patent US8003785B2 (Takeda Pharmaceutical Company Limited, priority 2008, dated 2011)
